Results from US12630506B2, “Direct thrombin inhibitors and methods of use thereof” (Baylor College of Medicine, priority 2020, dated 2026).

Molecular target: Thrombin (Homo sapiens, UniProt P00734)
Experiment: Thrombin inhibition in vitro (Kiapp)
Type: biochemical
Protocol: The inhibitory potency of Compound 1 on thrombin was tested in vitro.

Ki (in vitro, FIG. 1, read-out: inhibition constant (thrombin)): 1 nM | potency relative to argatroban (thrombin inhibition) (ratio of inhibition constants vs argatroban): about 10 fold
SMILES: CNC(=O)[C@@H]1CN(C(=O)[C@H](Cc2ccccc2CNC(=N)N)NC(=O)N(C)[C@H]2CCOc3ccccc32)C[C@H]1c1ccc(OC)cc1 [Compound 1]
